Test results published in US8198292B2, “Vinpocetine and eburnamonine derivatives for promoting bone growth, treating renal damage and cancer, and devices thereof” (Osteogenex, Inc., priority 2008, dated 2012).
Where a name gives a salt, the structure may show the parent alone.

Legend:
Type in all cases: in vivo
C57BL/6 mice [1] = test: Trabecular bone volume of the proximal tibia by micro-CT, daily i.p. treatment for 30 days; details: for increase in tibia long bone bone-volume/total volume over baseline control: 30 days, micro-CT
Method: Using the assay described above and in Journal of Bone and Mineral Research 2006, 21(11), 1738-1749 (incorporated herein in its entirety), compounds of the present invention can be identified as promoting bone growth. For example, the mouse test animal is treated with a predetermined dose of a SOST antagonist candidate for a complete dosing schedule. A control mouse is treated with a control solution, preferably a non-irritating buffer solution or other carrier. Once the dosing schedule has been completed, both test and control animals are examined with sacrifice using micro-CT to determine the quantity of bone formation present.
(§1) Four month old male C57BL/6 mice were treated daily with saline vehicle or the sclerostin inhibitor of eburnamonine phosphate at several doses (via i.p) for 30 days. Study endpoints included a biochemical marker of bone formation; osteocalcin, measured by EIA Elisa, and measurement of trabecular bone volume by mico-CT analysis on the proximal tibia and spine (lumbar 5). […] See also FIG. 3, showing increase in bone volume for the tibia: 5 mg/kg (D) and 0.33 mg/kg (E).

C57BL/6 mice [2] = test: Serum osteocalcin (bone formation marker) by EIA Elisa, daily i.p. treatment for 30 days; details: for increase in osteocalcin serum levels: FIG. 4
Method: as §1

C57BL/6 mice [3] = test: Bone volume of the spine (lumbar 5) by micro-CT, daily i.p. treatment for 30 days; details: i.p. daily 30 days, dose not stated
Method: as §1

C57BL/6 mice [4] = test: Bone volume of the tibia by pQCT after IP treatment (procedure of Example 2); details: 10 mg/kg IP
Method: Four month old male C57BL/6 mice were treated daily with saline vehicle or the sclerostin inhibitor of eburnamonine phosphate at several doses (via i.p) for 30 days. […] See also FIG. 3, showing increase in bone volume for the tibia: 5 mg/kg (D) and 0.33 mg/kg (E). […] Using the procedure set forth in Example 2, vinpocetine citrate was investigated for bone growth.

Compound: CCC12CCCN3CCc4c(n(c5ccccc45)C(=O)C1)C32 (stereo not drawn) [eburnamonine phosphate]
- increase in tibia long bone bone-volume/total volume over baseline control (C57BL/6 mice [1]; FIG. 1 (B), 5 mg/kg i.p. daily): 17%
- increase in tibia long bone bone-volume/total volume over baseline control (C57BL/6 mice [1]; FIG. 1 (C), 1 mg/kg i.p. daily): 10%
- increase in tibia long bone bone-volume/total volume compared to baseline controls (C57BL/6 mice [1]; FIG. 3 (D), 5 mg/kg): 9%
- increase in tibia long bone bone-volume/total volume compared to baseline controls (C57BL/6 mice [1]; FIG. 3 (E), 0.33 mg/kg): 17%
- percent change in serum osteocalcin increase versus saline controls (C57BL/6 mice [2]; FIG. 2, 5 mg/kg i.p. daily, 30 days, mice): 35%
- increase in osteocalcin serum levels (C57BL/6 mice [2]; 0.33 mg/kg, mice): 39%
- increase in bone volume of lumbar 5 (U-CT) (C57BL/6 mice [3]): 52%

Compound: CCOC(=O)C1=CC2(CC)CCCN3CCc4c(n1c1ccccc41)C32 (stereo not drawn) [vinpocetine citrate]
- increase in osteocalcin serum levels (C57BL/6 mice [2]; 10 mg/kg, over baseline): 62%
- increase in bone volume of the tibia (pQCT) (C57BL/6 mice [4]): 8%
